Data as given in patent publication US20090117083A1, “IMMUNOMODULATORY ALKALOIDS” (M N L PHARMA LIMITED, priority 2004, published 2009).
Where two headings read alike, the source gives them in different places.

Tests used:
spleen cells = test: Cytokine modulation in spleen cells (IFN-γ); assay type: cell-based, BALB/c mice
Method: BALB/c male and female mice bred and maintained at the University of Strathclyde under conventional conditions were used at varying age.
Cells suspensions were prepared by using the end of a syringe and grinding the spleen through a wire mesh. The cell suspension was then centrifuged at 1000 rpm for 5 minutes. To remove the erythrocytes, the cell pellet was resuspended in Boyle's solution (Tris 0.17M & Ammonium Chloride 0.16M) and centrifuged again for 5 minutes. The pellet was then washed in medium a further two times, then resuspended in 3 mls medium. A cell count was then carried out.
All spleen cell experiments were carried out in 96-well tissue culture plates. […] Unstimulated wells contained 100 μl of cells and 100 μl of medium. The stimulated wells contained 100 μl of cells plus 50 μl of LPS at 1 μg/ml or 50 μl anti-CD3 at 0.5 μg/ml and 50 μl of medium. The remaining wells contained 100 μl cells, 5 μl of MNLP compound and either 50 μl of anti-CD3 or medium alone.
The appropriate Mabs and standards were used according to the protocol described for IL-12 (described in Example 1, above).

α-D-glucosidase [1] = biological target: T1, α-D-glucosidase (Oryza sativa subsp. japonica, UniProt Q653V7); test: Glycosidase inhibition: α-D-glucosidase, rice; assay type: biochemical, rice (Oryza sativa)
T1 construct: purchased Sigma
T1 sequence (Q653V7 34-885): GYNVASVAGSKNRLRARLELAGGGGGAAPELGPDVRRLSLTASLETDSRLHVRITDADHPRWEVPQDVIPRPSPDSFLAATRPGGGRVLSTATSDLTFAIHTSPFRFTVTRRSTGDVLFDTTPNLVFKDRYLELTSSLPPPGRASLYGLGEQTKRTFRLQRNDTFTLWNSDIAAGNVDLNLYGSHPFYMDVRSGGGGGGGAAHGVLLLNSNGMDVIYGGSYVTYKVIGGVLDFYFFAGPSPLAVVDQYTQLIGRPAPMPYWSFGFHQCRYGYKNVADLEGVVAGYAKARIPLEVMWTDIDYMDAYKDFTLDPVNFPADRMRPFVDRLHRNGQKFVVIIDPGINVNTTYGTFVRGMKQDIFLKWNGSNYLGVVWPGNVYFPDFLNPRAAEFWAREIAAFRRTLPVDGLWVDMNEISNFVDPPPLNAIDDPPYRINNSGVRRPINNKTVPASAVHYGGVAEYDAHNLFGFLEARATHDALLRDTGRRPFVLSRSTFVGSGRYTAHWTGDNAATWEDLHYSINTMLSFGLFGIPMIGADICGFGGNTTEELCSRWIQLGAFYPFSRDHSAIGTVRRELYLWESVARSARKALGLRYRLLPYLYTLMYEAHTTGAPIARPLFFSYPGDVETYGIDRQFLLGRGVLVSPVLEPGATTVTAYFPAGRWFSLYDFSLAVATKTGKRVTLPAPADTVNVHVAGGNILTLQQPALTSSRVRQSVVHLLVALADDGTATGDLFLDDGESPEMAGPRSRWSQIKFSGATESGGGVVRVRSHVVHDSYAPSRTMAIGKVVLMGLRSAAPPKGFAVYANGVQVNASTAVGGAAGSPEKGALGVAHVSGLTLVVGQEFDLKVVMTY
Method: (§1) All enzymes were purchased from Sigma, as were the appropriate p-nitrophenyl substrates. Assays were carried out in microtitre plates. Enzymes were assayed in 0.1M citric acid/0.2M di-sodium hydrogen phosphate (McIlvaine) buffers at the optimum pH for the enzyme. All assays were carried out at 20° C. For screening assays the incubation assay consisted of 10 μl of enzyme solution, 10 μl of inhibitor solution (made up in water) and 50 μl of the appropriate 5 mM p-nitrophenyl substrate (3.57 mM final conc.) made up in McIlvaine buffer at the optimum pH for the enzyme.
(§2) The reactions were stopped with 0.4M glycine (pH 10.4) during the exponential phase of the reaction, which was determined at the beginning of the assay using blanks with water, which were incubated for a range of time periods to measure the reaction rate using 5 mM substrate solution. Endpoint absorbances were read at 405 nm with a Biorad microtitre plate reader (Benchmark). Water was substituted for the inhibitors in the blanks.

Naringinase = test: Glycosidase inhibition: Naringinase; assay type: biochemical, Penecillium decumbens; details: 1 mg/ml
Method: as §1, §2

α-D-glucosidase [2] = test: Glycosidase inhibition: α-D-glucosidase, Bacillus; assay type: biochemical, Bacillus stearothermophilus; details: 1 mg/ml
Method: as §1, §2

β-D-glucosidase = test: Glycosidase inhibition: β-D-glucosidase, almond; assay type: biochemical, Almonds (Prunus sp.); details: 1 mg/ml
Method: as §1, §2

α-L-fucosidase = biological target: T2, α-L-fucosidase (Bos taurus, UniProt Q2KIM0); test: Glycosidase inhibition: α-L-fucosidase; assay type: biochemical, Bovine
T2 construct: purchased Sigma
T2 sequence (Q2KIM0 23-468): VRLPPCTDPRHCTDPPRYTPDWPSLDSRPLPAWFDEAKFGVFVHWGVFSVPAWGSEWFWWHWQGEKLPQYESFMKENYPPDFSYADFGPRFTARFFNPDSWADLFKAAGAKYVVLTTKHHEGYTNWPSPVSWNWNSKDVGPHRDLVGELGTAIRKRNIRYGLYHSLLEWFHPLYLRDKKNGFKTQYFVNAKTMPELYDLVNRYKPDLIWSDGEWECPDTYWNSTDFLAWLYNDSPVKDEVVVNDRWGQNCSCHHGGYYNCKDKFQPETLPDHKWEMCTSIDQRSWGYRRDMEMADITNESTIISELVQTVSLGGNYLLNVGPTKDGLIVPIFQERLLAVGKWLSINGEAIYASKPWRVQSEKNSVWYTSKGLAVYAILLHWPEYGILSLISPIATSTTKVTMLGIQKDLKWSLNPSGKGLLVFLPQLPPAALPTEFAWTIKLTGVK
Method: as §1, §2

α-D-galactosidase = biological target: T3, α-D-galactosidase (Coffea arabica, UniProt Q42656); test: Glycosidase inhibition: α-D-galactosidase; assay type: biochemical, Green coffee beans (Coffea sp.)
T3 construct: purchased Sigma
T3 sequence (Q42656 16-378): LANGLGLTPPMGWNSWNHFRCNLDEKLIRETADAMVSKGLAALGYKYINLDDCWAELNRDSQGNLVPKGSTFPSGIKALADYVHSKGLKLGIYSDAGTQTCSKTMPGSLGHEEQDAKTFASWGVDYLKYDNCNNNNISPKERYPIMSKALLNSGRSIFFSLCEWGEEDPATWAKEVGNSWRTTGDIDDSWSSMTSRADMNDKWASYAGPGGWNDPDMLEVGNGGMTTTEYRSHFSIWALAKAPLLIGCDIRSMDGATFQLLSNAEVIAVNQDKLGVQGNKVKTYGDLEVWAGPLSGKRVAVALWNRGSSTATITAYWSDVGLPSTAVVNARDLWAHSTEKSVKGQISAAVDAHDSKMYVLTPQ
Method: as §1, §2

α-D-glucosidase [3] = biological target: T4, α-D-glucosidase (Saccharomyces cerevisiae, UniProt P53341); test: Glycosidase inhibition (p-nitrophenyl substrate): α-D-glucosidase, yeast; assay type: biochemical, Saccharomyces cerevisiae (Baker's yeast); details: 1 mg/ml
T4 construct: purchased Sigma
T4 sequence (P53341 whole entry): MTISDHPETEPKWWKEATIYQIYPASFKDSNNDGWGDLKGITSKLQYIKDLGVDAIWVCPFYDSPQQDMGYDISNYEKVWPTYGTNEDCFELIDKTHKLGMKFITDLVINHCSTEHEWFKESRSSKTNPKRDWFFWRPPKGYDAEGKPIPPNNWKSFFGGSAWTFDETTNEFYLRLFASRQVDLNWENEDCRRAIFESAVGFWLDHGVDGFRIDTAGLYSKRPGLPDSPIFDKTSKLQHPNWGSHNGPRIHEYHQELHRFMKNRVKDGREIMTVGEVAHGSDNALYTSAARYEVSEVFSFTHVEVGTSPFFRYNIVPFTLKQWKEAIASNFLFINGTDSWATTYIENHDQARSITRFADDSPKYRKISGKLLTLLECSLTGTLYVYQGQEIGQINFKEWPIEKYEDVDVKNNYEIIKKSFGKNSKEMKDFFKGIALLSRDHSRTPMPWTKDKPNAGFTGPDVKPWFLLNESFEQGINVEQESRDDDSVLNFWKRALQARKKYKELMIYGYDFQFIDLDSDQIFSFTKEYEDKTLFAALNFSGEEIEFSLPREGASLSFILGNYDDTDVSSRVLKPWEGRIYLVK
Method: as §1, §2

α-D-mannosidase = biological target: T5, α-D-mannosidase (Canavalia ensiformis, UniProt C0HJB3); test: Glycosidase inhibition: α-D-mannosidase; assay type: biochemical, Jack beans (Canavalia ensiformis)
T5 construct: purchased Sigma
T5 sequence (C0HJB3 whole entry): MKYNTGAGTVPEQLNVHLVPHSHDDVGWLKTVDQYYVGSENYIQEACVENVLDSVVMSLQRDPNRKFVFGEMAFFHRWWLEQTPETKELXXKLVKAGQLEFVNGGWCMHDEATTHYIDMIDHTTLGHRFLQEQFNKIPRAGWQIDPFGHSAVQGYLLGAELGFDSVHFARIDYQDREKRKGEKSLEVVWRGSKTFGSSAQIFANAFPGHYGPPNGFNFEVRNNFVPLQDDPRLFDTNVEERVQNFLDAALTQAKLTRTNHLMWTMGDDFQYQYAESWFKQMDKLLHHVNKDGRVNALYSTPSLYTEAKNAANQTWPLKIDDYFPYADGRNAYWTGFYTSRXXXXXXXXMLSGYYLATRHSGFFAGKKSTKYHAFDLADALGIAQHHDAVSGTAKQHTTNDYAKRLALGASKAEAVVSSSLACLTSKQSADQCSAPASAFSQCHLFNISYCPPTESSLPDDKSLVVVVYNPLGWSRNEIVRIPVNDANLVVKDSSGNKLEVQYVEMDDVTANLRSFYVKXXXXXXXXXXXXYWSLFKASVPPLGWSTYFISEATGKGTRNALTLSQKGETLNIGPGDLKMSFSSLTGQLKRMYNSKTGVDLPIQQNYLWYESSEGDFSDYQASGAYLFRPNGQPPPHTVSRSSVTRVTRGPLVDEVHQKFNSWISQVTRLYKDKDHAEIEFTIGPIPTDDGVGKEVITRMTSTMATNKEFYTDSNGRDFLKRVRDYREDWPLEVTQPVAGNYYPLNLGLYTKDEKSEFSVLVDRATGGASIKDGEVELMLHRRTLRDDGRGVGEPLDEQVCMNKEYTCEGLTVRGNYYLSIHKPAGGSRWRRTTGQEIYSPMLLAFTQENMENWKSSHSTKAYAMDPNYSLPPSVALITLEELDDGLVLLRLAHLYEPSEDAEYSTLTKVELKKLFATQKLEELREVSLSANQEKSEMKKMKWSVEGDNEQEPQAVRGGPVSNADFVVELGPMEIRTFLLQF
Method: All enzymes were purchased from Sigma, as were the appropriate p-nitrophenyl substrates. Assays were carried out in microtitre plates. Enzymes were assayed in 0.1M citric acid/0.2M di-sodium hydrogen phosphate (McIlvaine) buffers at the optimum pH for the enzyme. All assays were carried out at 20° C.
Endpoint absorbances were read at 405 nm with a Biorad microtitre plate reader (Benchmark). Water was substituted for the inhibitors in the blanks.

[4] = test system: N-acetyl-β-D-glucosaminidase; test: Glycosidase inhibition: N-acetyl-β-D-glucosaminidase; assay type: biochemical, Bovine; details: 1 mg/ml
Method: as §1, §2

β-D-galactosidase = test: Glycosidase inhibition: β-D-galactosidase; assay type: biochemical, Bovine; details: 1 mg/ml
Method: as §1, §2

HSV-1 (SC16) = details: versus infected untreated group
[5] = 1 mg/ml, read-out: % inhibition, gluc (rice)
[6] = 1 mg/ml, read-out: % inhibition, fucosidase
[7] = read-out: % inhibition, galactosidase
[8] = read-out: % inhibition, gluc (yeast)
[9] = read-out: % inhibition, mannosidase
[10] = read-out: % inhibition, α-gluc (yeast)
[11] = read-out: % inhibition, α-gluc (rice)
[12] = read-out: % inhibition, α-mannosidase
[13] = read-out: % inhibition, α-fucosidase
[14] = 1 mg/ml, read-out: % inhibition, α-galactosidase
[15] = 1 mg/ml, read-out: % inhibition, α-gluc (rice)
[16] = 1 mg/ml, read-out: % inhibition, α-fucosidase

Row | SMILES | inhibition at 1000 µg/mL (α-D-glucosidase [1]; [5]) [%] | % inhibition, Naringinase (Naringinase) [%] | % inhibition, gluc (Bacillus) (α-D-glucosidase [2]) [%] | % inhibition, glucosidase (β-D-glucosidase) [%] | % inhibition, N-acetyl-β-gluc [4] [%] | inhibition at 1000 µg/mL (α-D-glucosidase [3]; [10]) [%] | % inhibition, α-gluc (Bacillus) (α-D-glucosidase [2]) [%] | inhibition at 1000 µg/mL (α-D-mannosidase; [12]) [%] | % inhibition, β-galactosidase (β-D-galactosidase) [%] | % inhibition, β-glucosidase (β-D-glucosidase) [%] | inhibition at 1000 µg/mL (α-D-galactosidase; [14]) [%] | inhibition at 1000 µg/mL (α-D-glucosidase [1]; [15]) [%] | inhibition at 1000 µg/mL (α-L-fucosidase; [16]) [%] | further results
1 | OC[C@H]1NC[C@H](O)[C@@H](O)[C@@H]1O [1-Deoxynojirimycin (DNJ) (21), 1-Deoxynojirimycin] | – | – | – | – | – | – | – | – | – | – | – | – | – | IFN-γ secretion/production in splenocytes (spleen cells): inhibited
2 | OC[C@@H]1[C@@H](O)[C@H](O)[C@H]2[C@@H](O)[C@@H](O)CN21 [7-epi-casuarine (11), 7-epi-casuarine] | 73 | −4 | 5 | 30 | – | – | – | – | – | – | – | – | – | inhibition at 1000 µg/mL (α-L-fucosidase; [6]): 25%; inhibition at 1000 µg/mL (α-D-galactosidase; [7]): 1%
3 | OC[C@H]1[C@@H](O)[C@H](O)[C@H]2[C@@H](O)[C@H](O)CN21 [Compound 12, 3,6,7-triepi-casuarine] | 0 | 0 | 9 | 6 | 19 | – | – | – | – | – | – | – | – | inhibition at 1000 µg/mL (α-D-glucosidase [3]; [8]): 2%; inhibition at 1000 µg/mL (α-D-mannosidase; [9]): 8%; inhibition at 1000 µg/mL (α-L-fucosidase; [6]): -11%; inhibition at 1000 µg/mL (α-D-galactosidase; [7]): 2%
4 | OC[C@H]1[C@@H](O)[C@H](O)[C@@H]2[C@@H](O)[C@H](O)CN21 [Compound 21, 3,6,7,7a-tetraepi-casuarine] | 46 | 5 | −2 | 44 | 27 | – | – | – | – | – | – | – | – | inhibition at 1000 µg/mL (α-D-mannosidase; [9]): 1%; inhibition at 1000 µg/mL (α-D-galactosidase; [7]): -3%
5 | OC[C@H]1[C@@H](O)[C@H](O)[C@@H]2[C@@H](O)[C@@H](O)CN21 [Compound 22, 3,7,7a-triepi-casuarine] | 0 | 10 | 87 | 52 | – | – | – | – | – | – | – | – | – | inhibition at 1000 µg/mL (α-D-glucosidase [3]; [8]): 29%
6 | O[C@@H]1[C@@H]2[C@@H](O)[C@H](O)[C@H](O)CN2C[C@H]1O [Compound 35, 2-α-hydroxy-6-epi-castanospermine] | – | 0 | – | – | 20 | -5 | −12 | 11 | −1 | −3 | -5 | – | – | inhibition at 1000 µg/mL (α-D-glucosidase [1]; [11]): 61%; inhibition at 1000 µg/mL (α-L-fucosidase; [13]): 0%
7 | OC[C@H]1N[C@H](c2ccc(O)cc2)[C@@H](O)[C@@H]1O [Compound 36, PLB1] | – | 41 | – | – | 30 | 19 | 62 | 42 | 52 | 52 | 43 | 54 | 13 | –
8 | O[C@@H]1[C@@H]2[C@@H](O)[C@H](O)[C@@H](O)CN2C[C@@H]1O [Compound 44, 2-β-hydroxycastanospermine] | – | 6 | – | – | 13 | 8 | – | 1 | −1 | 20 | -4 | – | – | –
9 | OCCN1C[C@@H](O)[C@H](O)[C@H]1CO [Compound 55, N-hydroxyethyl-1,4-dideoxy-1,4-imino-D-arabinitol] | – | 44 | – | – | 6 | -3 | 15 | 5 | 13 | 44 | 4 | 71 | -7 | –
10 | O[C@@H]1[C@@H]2[C@@H](O)[C@H](O)[C@@H](O)CN2C[C@H]1O [Compound 64, 2-α-hydroxycastanospermine] | – | 76 | – | – | 21 | -6 | −15 | 21 | −3 | −1 | -9 | – | – | inhibition at 1000 µg/mL (α-D-glucosidase [1]; [11]): 12%; inhibition at 1000 µg/mL (α-L-fucosidase; [13]): 4%
11 | COc1cc([C@H]2N[C@H](CO)[C@@H](O)[C@@H]2O)ccc1O [Compound 65, PLB2] | – | 4 | – | – | 0 | 37 | 37 | -16 | 18 | 25 | 4 | 0 | -4 | –
12 | OCC1N[C@H](CO)[C@@H](O)[C@@H]1O (stereo partly drawn) [DMDP, 2,6-dihydroxymethyl-3,4-dihydroxypyrrolidine] | – | 0 | – | – | 25 | 74 | 85 | 25 | 71 | 81 | -3 | 91 | -4 | –
13 | CC(=O)OCC(CCn1cnc2cnc(N)nc21)COC(C)=O [famciclovir, reference compound] | – | – | – | – | – | – | – | – | – | – | – | – | – | ear thickness response (HSV-1 (SC16)): almost completely negated
